Structures can show the parent of a compound that is named as a salt. Where two headings read alike, the source gives them in different places.
Tests used:
[1] = target: T1, 5-HT-1A serotonin receptor (Rattus norvegicus, UniProt P19327); assay: ex vivo inhibition of 5-HT-1A serotonin receptor binding (3H-8-OH-DPAT, hippocampal membranes)
T1 construct: Hippocampal tissue is dissected and homogenized on ice in 40 vols of buffer; from tissue; host or cells: rat hippocampus, washed membrane homogenate
T1 sequence (P19327 1-422): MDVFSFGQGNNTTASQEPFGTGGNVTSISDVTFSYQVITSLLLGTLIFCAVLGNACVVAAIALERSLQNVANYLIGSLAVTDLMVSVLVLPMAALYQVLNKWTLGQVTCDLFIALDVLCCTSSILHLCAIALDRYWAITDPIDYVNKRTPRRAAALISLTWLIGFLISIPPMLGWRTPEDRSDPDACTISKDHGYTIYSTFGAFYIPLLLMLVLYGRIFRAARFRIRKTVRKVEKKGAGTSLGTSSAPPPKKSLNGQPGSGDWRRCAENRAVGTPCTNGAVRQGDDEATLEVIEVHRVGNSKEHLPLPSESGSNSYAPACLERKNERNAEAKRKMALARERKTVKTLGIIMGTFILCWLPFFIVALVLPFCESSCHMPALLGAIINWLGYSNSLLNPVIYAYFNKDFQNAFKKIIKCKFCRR
Method: The assay is carried out as follows:
Several groups of rats (4-6 rats/group) are injected with test compound or the appropriate vehicle. Thirty minutes later, unless otherwise noted, rats are decapitated and their brains removed. Various brain regions are dissected and rapidly frozen and maintained at -70° C. until used.
The homogenate is then centrifuged at 20,000 rpm (RC5-B; 50,000 g) and the supernatant discarded. […] The pellet is then resuspended in 100 vols of buffer B (50 mM Tris HCl, pH=7.7 containing 0.1% ascorbate, 10 μM pargyline and 4 mM CaCl2) and sonicated. An aliquot is taken for protein determination by the Lowry method and the remainder stored frozen at -70° C. until used.
Specific binding obtained in vehicle-treated rats is compared to that obtained in animals receiving a single or various doses of test compound and expressed as percent of control.

[2] = system: conditioned avoidance responding in rats; assay: conditioned avoidance (shelf-jump response) test; conditions: i.p.; Table 1
Method: A test designed to determine the potential antipsychotic activity of the compounds of the invention is the conditioned avoidance (shelf-jump response) test.
This test is carried out as follows:
Male CD rats (Charles River) maintained at approximately 400-450 gm body weight are used. […] A moveable wall, controlled by a motor, determines whether the rat has access to the shelf at any time during the experiment. The experimental chamber also contains a house light and sonalert. A steel grid floor in the main chamber is wired for presentation of electric shock. Each trial consists of a fifteen-second warning tone (conditioned stimulus), continuing for an additional fifteen seconds accompanied by electric shock (unconditioned stimulus). A response (jumping onto the exposed shelf of the upper chamber) occurring during the initial fifteen-second warning tone is considered an avoidance response, while a response occurring during shock delivery is considered an escape response. Trials are presented on a fixed interval schedule of one minute. The session consists of thirty-six trials. Animals are run twice weekly with control sessions always preceding a drug run, and with at least one day intervening. Compounds are administered i.p. or p.o. at appropriate pre-treatment times to a minimum of five rats at each dose level over a range of doses.
The following experimental parameters are recorded by computer: (1) the number of avoidance responses, (2) the number of escape responses, and (3) the number of trials in which no response occurred.
Response counts are summed over all subjects at a given dose. […] This number is expressed as a percentage of the total trials. Control performance is arbitrarily assigned a value of 100% for avoidance and the dose calculated to produce a 50% block in avoidance responding (AB50) is obtained from a dose-effect regression line fitted by the method of least squares. Potential anti-psychotic compounds suppress avoidance responding and increase escape responding.

[3] = target: limbic D-2 dopamine receptor (Rattus norvegicus, UniProt P61169); assay: biochemical; conditions: read-out: Limbic D-2 Binding, inhibition
[4] = Table 3, rat hippocampal tissue, 3H-8-OH-DPAT, read-out: Inhibition Constant (Ki)

limbic D-2 dopamine receptor, sequence (P61169 whole entry): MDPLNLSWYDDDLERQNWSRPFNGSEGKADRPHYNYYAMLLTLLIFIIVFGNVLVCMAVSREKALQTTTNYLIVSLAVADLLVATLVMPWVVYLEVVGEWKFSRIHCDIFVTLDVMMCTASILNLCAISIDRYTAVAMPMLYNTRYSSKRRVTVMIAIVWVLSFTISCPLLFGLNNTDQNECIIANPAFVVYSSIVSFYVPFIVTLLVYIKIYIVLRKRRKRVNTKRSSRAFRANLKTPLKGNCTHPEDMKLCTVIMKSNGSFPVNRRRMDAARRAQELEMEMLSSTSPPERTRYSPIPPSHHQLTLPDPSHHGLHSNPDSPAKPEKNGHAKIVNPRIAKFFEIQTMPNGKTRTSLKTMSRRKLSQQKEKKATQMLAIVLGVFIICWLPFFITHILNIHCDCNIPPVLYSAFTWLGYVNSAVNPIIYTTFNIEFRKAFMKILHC

Ki [1, 4]	SMILES	Active at [2]	Ki [1]	inhibition at 1 µM [3]
7 nM	O=C1N(CCCCN2CCN(c3ncccn3)CC2)C(=O)C23C4CCC(C4)C12C1CCC3C1 (centres unmarked) [Example 4, Octahydro-10-[4-[4-(2-pyrimdinyl)-1-piperazinyl]butyl]-4a,8a-(methaniminomethano)-1,4:5,8-dimethanonaphthalene-9,11-dione, dihydrochloride]	40 mg/kg		
	O=C1N(CCCCN2CCN(c3cnccn3)CC2)C(=O)C23C4C=CC(C4)C12C1C=CC3C1 (centres unmarked) [Example 3, 1,4,5,8-Tetrahydro-10-[4-[4-(2-pyrazinyl)-1-piperazinyl]butyl]-4a,8a-(methaniminomethano)-1,4:5,8-dimethanonaphthalene-9,11-dione, dihydrochloride, sesquihydrate]	40 mg/kg	12 nM	63%
14 nM	O=C1N(CCCCN2CCN(c3ncccn3)CC2)C(=O)C23C4C=CC(C4)C12C1C=CC3C1 (centres unmarked) [Example 1, 1,4,5,8-Tetrahydro-10-[4-[4-(2-pyrimidinyl-1-piperazinyl]butyl]-4a,8a-(methaniminomethano)-1,4:5,8-dimethanonaphthalene-9,11-dione, dihydrochloride, hemihydrate]	40 mg/kg		53%
